This note sets out measurements from BindingDB's records for patent US8497376 (Janssen Pharmaceutica, 2013).

The target in this assay is Macrophage colony-stimulating factor 1 receptor (Homo sapiens, UniProt P07333). Nature of the assay: Fluorescence Polarization Competition Assay. The note with it: pH 7.5. The source says:
An autophosphorylation, fluroescence polarization competition immunoassay was used to determine the potency for c-fms inhibition.
(In general: Polarisation of emitted light reports the rotation of a fluorescent probe.)

Macrophage colony-stimulating factor 1 receptor, sequence (P07333 whole entry): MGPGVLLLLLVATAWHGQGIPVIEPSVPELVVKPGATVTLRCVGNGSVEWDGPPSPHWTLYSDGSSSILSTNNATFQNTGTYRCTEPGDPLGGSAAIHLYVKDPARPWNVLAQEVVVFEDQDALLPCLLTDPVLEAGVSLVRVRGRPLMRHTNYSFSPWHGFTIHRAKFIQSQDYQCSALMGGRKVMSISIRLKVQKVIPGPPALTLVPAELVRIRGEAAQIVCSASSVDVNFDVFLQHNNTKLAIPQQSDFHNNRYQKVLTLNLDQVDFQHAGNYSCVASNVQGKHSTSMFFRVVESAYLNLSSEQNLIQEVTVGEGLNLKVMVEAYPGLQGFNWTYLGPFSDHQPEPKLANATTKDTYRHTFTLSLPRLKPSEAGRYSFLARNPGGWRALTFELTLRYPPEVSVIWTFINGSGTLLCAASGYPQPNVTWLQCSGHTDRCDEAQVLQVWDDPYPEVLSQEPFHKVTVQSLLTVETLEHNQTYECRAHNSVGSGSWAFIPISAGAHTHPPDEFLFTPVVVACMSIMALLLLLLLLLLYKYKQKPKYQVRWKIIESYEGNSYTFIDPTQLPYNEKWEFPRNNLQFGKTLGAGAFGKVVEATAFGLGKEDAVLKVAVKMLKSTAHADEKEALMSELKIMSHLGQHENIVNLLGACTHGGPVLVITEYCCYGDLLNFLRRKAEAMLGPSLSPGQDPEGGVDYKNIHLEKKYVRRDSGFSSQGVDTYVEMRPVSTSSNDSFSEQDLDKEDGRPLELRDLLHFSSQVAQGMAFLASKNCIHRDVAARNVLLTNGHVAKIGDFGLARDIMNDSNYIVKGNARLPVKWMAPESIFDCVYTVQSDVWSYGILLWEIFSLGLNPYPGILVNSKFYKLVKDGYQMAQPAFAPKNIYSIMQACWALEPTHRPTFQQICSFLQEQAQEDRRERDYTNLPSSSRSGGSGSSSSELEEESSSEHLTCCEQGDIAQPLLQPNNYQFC

For orientation: IC50 means the concentration needed to halve the response being measured. Higher therefore signals lower potency. `CC1(C)CC=C(c2cc([C@]3(O)C[C@@]4(CO)C=C[C@@](CO)(C3)O4)ccc2NC(=O)c2ncc(C#N)[nH]2)CC1` [US8497376, 2] gave an IC50 of 0.43 nM.
